In US10736883B2, “Triazole furan compounds as agonists of the APJ receptor” (AMGEN INC., priority 2016, dated 2020):

Columns and labels:
[1] = system: isolated perfused rat hearts; assay: Ex vivo isolated perfused rat heart (Langendorff) assay, load independent inotropic/lusitropic effects; details: percent change over vehicle; for Isolated Heart Assay dP/dtmax (%): contractility; for Isolated Heart Assay dP/dtmin (%): relaxation
Description: Evidence for Load Independent Inotropic Effects with APJ Agonists Using Ex Vivo Assay (Isolated Perfused Rat Hearts)
Naive Sprague Dawley® SD rats (Harlan laboratories (Livermore, Calif. USA)) were anaesthetized and hearts were excised followed by cannulation in the Langendorff apparatus (Harvard apparatus, Holliston, Mass. USA) via aorta. The heart was perfused retrograde with modified oxygenated Krebs-Henseleit buffer (Skrzypiec-Spring M et al., (2007) J. Pharmacol Toxicol Methods 55: 113-126). The pressure of the solution causes the aortic valve to shut and the perfusate is then forced into the ostium and the coronary vessels. This allows the heart to beat for several hours. A balloon was inserted into the left ventricle (LV) to measure dP/dtmax (derivative of left ventricular pressure) as an index of cardiac contractility. The APJ agonist was perfused constantly in a dose dependent manner into the heart to examine cardiac contractility.
Example 210.0 was infused at different concentrations and load independent contractility was measured by index of LV dP/dtmax and the results are expressed as a percent change over vehicle. […] Example 210.0 was infused at different concentrations and load independent lusitropic effect (relaxation) was measured by index of LV dP/dtmin where results are expressed as percent change over vehicle. […] Example 51.0 was infused at different concentrations and load independent contractility was measured by index of LV dP/dtmax and the results are expressed as a percent change over vehicle. […] Example 51.0 was infused at different concentrations and load independent lusitropic effect (relaxation) was measured by index of LV dP/dtmin where results are expressed as percent change over vehicle.

APJ receptor = APJ receptor (Homo sapiens (Human), UniProt P35414); assay: [35S]GTPγS binding assay on membranes from CHO cells stably expressing human APJ receptor; type: biochemical; details: membranes of CHO cells stably expressing human APJ receptor, means of several independent experiments, read-out: Activity hAPJ SPA EC50 IP
Procedure, shortened: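 EC50 values were obtained by non-linear regression of [35S]GTPγS (0.2 nM) binding after 90 min at RT, with nonspecific binding defined by 100 μM GTPγS. Reactions used human APJ–expressing CHO cell membranes on WGA PS beads in HEPES pH 7.5 buffer with 5 mM MgCl2, 200 mM NaCl, 3 μM GDP and 0.1% BSA.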

heart failure rat model = assay: In vivo cardiac contractility in heart failure (MI) rat model; details: heart failure rats (LAD ligation), acute administration for 30 min
Procedure: Evidence for Improvement in Cardiac Contractility In Vivo in Heart Failure Rat Model
Based on the ex vivo findings in isolated heart assay, APJ agonists were dosed in vivo to investigate the translation of cardiac contractility in in vivo settings. Male Lewis rats (Charles River, USA) at 2-3 months of age were used for the study. Heart failure was induced by permanent ligation of the left descending coronary artery which results in injury to the heart with an ejection fraction of <35%. APJ agonists were administered dose dependently acutely for a period of 30 min. Administration of example compounds lead to an increase in cardiac contractility as measured by dP/dtmax (derivative of left ventricular pressure) (Table 27).

[2] = system: ex vivo naive Sprague Dawley rat hearts; assay: Langendorff isolated perfused rat heart (ex vivo); details: isolated perfused rat hearts, Langendorff apparatus, compared with vehicle / control (DMSO)
Description: FIG. 1A is a graph of left ventricular dP/dtmax as a function of concentration of Example 210.0 compared with vehicle in ex vivo naive Sprague Dawley rat hearts obtained using the Langendorff apparatus.
FIG. 1B is a graph of left ventricular dP/dtmin as a function of concentration of Example 210.0 compared with vehicle in ex vivo naive Sprague Dawley rat hearts obtained using the Langendorff apparatus.
FIG. 2A is a graph of left ventricular dP/dtmax as a function of concentration of Example 51.0 compared with vehicle in ex vivo naive Sprague Dawley rat hearts obtained using the Langendorff apparatus.
FIG. 2B is a graph of left ventricular dP/dtmin as a function of concentration of Example 51.0 compared with vehicle in ex vivo naive Sprague Dawley rat hearts obtained using the Langendorff apparatus.

Sequence of APJ receptor (P35414 whole entry): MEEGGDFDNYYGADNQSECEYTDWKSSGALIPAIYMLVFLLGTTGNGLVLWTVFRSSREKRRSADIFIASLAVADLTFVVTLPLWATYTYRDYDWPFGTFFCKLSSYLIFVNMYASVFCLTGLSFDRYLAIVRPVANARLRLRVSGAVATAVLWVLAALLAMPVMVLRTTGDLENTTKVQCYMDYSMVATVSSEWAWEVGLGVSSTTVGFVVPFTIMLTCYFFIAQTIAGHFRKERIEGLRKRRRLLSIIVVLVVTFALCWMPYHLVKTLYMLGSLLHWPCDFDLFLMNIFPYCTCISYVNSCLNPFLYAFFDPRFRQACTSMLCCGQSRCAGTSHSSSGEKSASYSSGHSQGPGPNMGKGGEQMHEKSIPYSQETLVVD

Row | SMILES | Isolated Heart Assay dP/dtmax (%) [1] [%] | Isolated Heart Assay dP/dtmin (%) [1] [%] | EC50 (APJ receptor) [nM] | MI Rat Model dP/dtmax (%) (heart failure rat model) | left ventricular dP/dtmax (cardiac contractility) [2] | left ventricular dP/dtmin (cardiac relaxation) [2]
1 | COc1cccc(OC)c1-n1c(NS(=O)(=O)[C@@H](C)Cc2ncc(F)cn2)nnc1-c1ccc(C)o1 (single isomer, unassigned) [Example 108.0, (2S)—N-(4-(2,6-Dimethoxyphenyl)-5-(5-methyl-2-furanyl)-4H-1,2,4-triazol-3-yl)-1-(5-fluoro-2-pyrimidinyl)-2-propanesulfonamide or (2R)—N-(4-(2,6-dimethoxyphenyl)-5-(5-methyl-2-furanyl)-4H-1,2,4-triazol-3-yl)-1-(5-fluoro-2-pyrimidinyl)-2-propanesulfonamide] | 38.8 | 30.1 | 0.25 | – | – | –
2 | COc1cccc(OC)c1-n1c(NS(=O)(=O)[C@@H](C)[C@H](O)c2ncc(F)cn2)nnc1-c1ccc(C)o1 [Example 115.0, (1R,2S)-N-(4-(2,6-dimethoxyphenyl)-5-(5-methylfuran-2-yl)-4H-1,2,4-triazol-3-yl)-1-(5-fluoropyrimidin-2-yl)-1-hydroxypropane-2-sulfonamide] | 32.6 | 34.7 | 0.2 | 30% | – | –
3 | COc1cccc(OC)c1-n1c(NS(=O)(=O)CCc2ccc(F)cn2)nnc1-c1ccco1 [Example 41.0, N-(4-(2,6-dimethoxyphenyl)-5-(2-furanyl)-4H-1,2,4-triazol-3-yl)-2-(5-fluoro-2-pyridinyl)ethanesulfonamide] | 22.1 | 22.7 | – | – | – | –
4 | COc1cccc(OC)c1-n1c(NS(=O)(=O)CCc2ncc(C)cn2)nnc1-c1ccc(C)o1 [Example 26.0, N-(4-(2,6-dimethoxyphenyl)-5-(5-methyl-2-furanyl)-4H-1,2,4-triazol-3-yl)-2-(5-methyl-2-pyrimidinyl)ethanesulfonamide] | 10.20 | 11.1 | 0.42 | 58% | – | –
5 | COc1cccc(OC)c1-n1c(NS(=O)(=O)[C@@H](C)Cc2ncc(F)cn2)nnc1-c1ccco1 (single isomer, unassigned) [Example 51.0, (2S)—N-(4-(2,6-Dimethoxyphenyl)-5-(2-furanyl)-4H-1,2,4-triazol-3-yl)-1-(5-fluoro-2-pyrimidinyl)-2-propanesulfonamide or (2R)—N-(4-(2,6-dimethoxyphenyl)-5-(2-furanyl)-4H-1,2,4-triazol-3-yl)-1-(5-fluoro-2-pyrimidinyl)-2-propanesulfonamide] | 40.6 | 33.8 | 1 | 38% | – | –
6 | COc1cccc(OC)c1-n1c(NS(=O)(=O)CCN2C(=O)N(C)CC[C@@H]2C)nnc1-c1ccc(C)o1 (single isomer, unassigned) [Example 204.0, N-(4-(2,6-Dimethoxyphenyl)-5-(5-methyl-2-furanyl)-4H-1,2,4-triazol-3-yl)-2-((6S)-3,6-dimethyl-2-oxotetrahydro-1 (2H)-pyrimidinyl)ethanesulfonamide ethanesulfonamide or N-(4-(2,6-dimethoxyphenyl)-5-(5-methyl-2-furanyl)-4H-1,2,4-triazol-3-yl)-2-((6R)-3,6-dimethyl-2-oxotetrahydro-1(2H)-pyrimidinyl)ethanesulfonamide] | 24.6 | 29.0 | 0.26 | No effect | – | –
7 | COc1cccc(OC)c1-n1c(NS(=O)(=O)[C@@H](C)[C@H](OC)c2ncc(C)cn2)nnc1-c1ccc(C)o1 [Example 261.0] | 34.5 | 53.8 | 0.13 | 30% | – | –
8 | COc1cccc(OC)c1-n1c(NS(=O)(=O)[C@H](C)Cc2ccc(Cl)cc2)nnc1-c1ccco1 (single isomer, unassigned) [Example 205.0, (2R)-1-(4-chlorophenyl)-N-(4-(2,6-dimethoxyphenyl)-5-(2-furanyl)-4H-1,2,4-triazol-3-yl)-2-propanesulfonamide or (2S)-1-(4-chlorophenyl)-N-(4-(2,6-dimethoxyphenyl)-5-(2-furanyl)-4H-1,2,4-triazol-3-yl)-2-propanesulfonamide] | 18.8 | 20.5 | 2.3 | – | – | –
9 | COc1cccc(OC)c1-n1c(NS(=O)(=O)CCc2ccc(F)cc2C#N)nnc1-c1ccco1 [Example 210.0, 2-(2-Cyano-4-fluorophenyl)-N-(4-(2,6-dimethoxyphenyl)-5-(2-furanyl)-4H-1,2,4-triazol-3-yl)ethanesulfonamide] | 25.9 | 34.0 | 3.2 | 95.6% | increases load independent cardiac contractility | increases load independent cardiac relaxation
10 | COc1cccc(OC)c1-n1c(NS(=O)(=O)CCc2ccc(Cl)cc2)nnc1-c1ccco1 [Example 111.0, 2-(4-Chlorophenyl)-N-(4-(2,6-dimethoxyphenyl)-5-(furan-2-yl)-4H-1,2,4-triazol-3-yl)ethanesulfonamide] | 19.5 | 24.9 | 7.8 | 97% | – | –
11 | CC[C@H](Cc1ncc(F)cn1)S(=O)(=O)Nc1nnc(-c2ccco2)n1-c1c(OC)cccc1OC (single isomer, unassigned) [Example 136.0, (R)—N-(4-(2,6-Dimethoxyphenyl)-5-(furan-2-yl)-4H-1,2,4-triazol-3-yl)-1-(5-fluoropyrimidin-2-yl)butane-2-sulfonamide or (S)—N-(4-(2,6-dimethoxyphenyl)-5-(furan-2-yl)-4H-1,2,4-triazol-3-yl)-1-(5-fluoropyrimidin-2-yl)butane-2-sulfonamide] | – | – | 19 | – | – | –
12 | COc1cccc(OC)c1-n1c(NS(=O)(=O)[C@H]2COC[C@@H]2c2ncc(F)cn2)nnc1-c1ccco1 (racemic) [Example 180.0, (3R,4S)—N-(4-(2,6-Dimethoxyphenyl)-5-(2-furanyl)-4H-1,2,4-triazol-3-yl)-4-(5-fluoro-2-pyrimidinyl)tetrahydro-3-furansulfonamide and (3S,4R)—N-(4-(2,6-dimethoxyphenyl)-5-(2-furanyl)-4H-1,2,4-triazol-3-yl)-4-(5-fluoro-2-pyrimidinyl)tetrahydro-3-furansulfonamide] | – | – | 3.6 | – | – | –
